{
  "source": "paper doi:10.1101/2025.07.07.663466v1",
  "about": "(biorxiv, 2025)",
  "target": "M. tuberculosis GroEL1 (Cpn60.1) (Mycobacterium tuberculosis, UniProt P9WPE9)",
  "sequence (P9WPE9 2-539 limits assumed)": "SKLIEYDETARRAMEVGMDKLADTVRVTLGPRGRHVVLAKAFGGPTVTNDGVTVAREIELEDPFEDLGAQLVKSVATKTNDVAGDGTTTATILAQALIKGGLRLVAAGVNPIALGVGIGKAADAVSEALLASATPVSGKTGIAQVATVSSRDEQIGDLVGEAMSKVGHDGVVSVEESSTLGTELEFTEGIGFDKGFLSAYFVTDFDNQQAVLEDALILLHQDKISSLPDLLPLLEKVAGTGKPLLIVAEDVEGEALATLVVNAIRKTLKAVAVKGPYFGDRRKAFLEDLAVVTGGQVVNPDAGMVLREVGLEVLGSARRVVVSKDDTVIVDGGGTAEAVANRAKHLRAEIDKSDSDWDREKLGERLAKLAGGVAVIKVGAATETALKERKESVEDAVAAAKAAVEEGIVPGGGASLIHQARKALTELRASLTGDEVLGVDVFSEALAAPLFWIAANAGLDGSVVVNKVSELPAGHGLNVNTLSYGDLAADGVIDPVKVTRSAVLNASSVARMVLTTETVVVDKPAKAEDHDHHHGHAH",
  "data": [
    {"smiles": "CCC(=O)SCCNC(=O)CCNC(=O)[C@H](O)C(C)(C)COP(=O)(O)OP(=O)(O)OC[C@H]1O[C@@H](n2cnc3c(N)ncnc32)[C@H](O)[C@@H]1OP(=O)(O)O", "note": "[propionyl-CoA]", "values": [
      {"measurement": "auto-propionylation, anti-propionyllysine enrichment and MS/MS", "value": "Using propionyl-CoA as a substrate"}
    ]}
  ]
}
